Laboratory results reported in patent publication EP0562731A1, “Substituted pyridinesulfonamide compounds or their salts, process for preparing the same, and herbicides containing the same” (ISHIHARA SANGYO KAISHA, Ltd., priority 1992, dated 1993).

Experiments:
Assay in all cases: Test Example 1: foliar application pot test, visual growth control rating
Format in all cases: in vivo
Design in all cases: key: 1: the same as in an untreated plot; 10: perfect growth control
Conditions in all cases: wettable powder, observed 20 to 31 days after application
[1] = tested on: cocklebur (Xanthium strumarium)
Source text: (§1) 1/1,500 are [are (a) = 100 m²] pots were filled with upland farming soil, which in the pots was then sown with a variety of plants. The plants grown will be enumerated below.
(§2) When each plant reached a given growth stage (a 1.2- to 3.0-leaf stage for rice, primary leaf to a 0.7-leaf stage for soybean, 2.1- to 3.6-leaf stage for corn, cotyledon to 0.7-leaf stage for cotton, 2.0- to 3.0-leaf stage for wheat, 0.3- to 3.4-leaf stage for cocklebur, 0.3- to 1.6-leaf stage for morning glory, 0.1- to 1.3-leaf stage for prickly sida, 0.1- to 1.3-leaf stage for slender amaranth, 1.5- to 3.2-leaf stage for barnyard glass, and 1.2- to 3.0-leaf stage for large crabgrass), a predetermined amount of the herbicide of the present invention in the form of a wettable powder, weighed out, diluted with 5 ℓ/a of water and admixed with 0.2 or 0.1 vol%, based on the resulting composition, of an agricultural spreader, was foliarly applied to the plant with a small spray gun. The progress of growth of the plant was visually observed 20 to 31 days after the foliar application to evaluate the degree of growth control according to 10 ratings (1: the same as in an untreated plot - 10: perfect growth control).

[2] = tested on: morning glory (Ipomoea purpurea)
Source text: as §1, §2

[3] = tested on: large crabgrass (Digitaria adscendens)
Source text: as §1, §2

[4] = tested on: prickly sida (Sida spinosa)
Source text: as §1, §2

[5] = tested on: slender amaranth (Amaranthus viridis)
Source text: as §1, §2

wheat (Triticum) = tested on: wheat (Triticum)
Source text: as §1, §2

corn (Zea mays) = tested on: corn (Zea mays)
Source text: as §1, §2

rice (Oryza sativa) = tested on: rice (Oryza sativa)
Source text: as §1, §2

[6] = tested on: barnyard grass (Echinochloa crus-galli)
Source text: as §1, §2

SMILES	degree of growth control, XA ([1]; 0.31 g/a active ingredient)	degree of growth control, XA ([1]; 1.25 g/a active ingredient)	degree of growth control, IP ([2]; 0.31 g/a active ingredient)	degree of growth control, IP ([2]; 1.25 g/a active ingredient)	degree of growth control, DI ([3]; 0.31 g/a active ingredient)	degree of growth control, DI ([3]; 1.25 g/a active ingredient)	degree of growth control, SI ([4]; 0.31 g/a active ingredient)	degree of growth control, SI ([4]; 1.25 g/a active ingredient)	degree of growth control, AM ([5]; 0.31 g/a active ingredient)	degree of growth control, AM ([5]; 1.25 g/a active ingredient)	degree of growth control, TR (wheat (Triticum); 0.31 g/a active ingredient)	degree of growth control, TR (wheat (Triticum); 1.25 g/a active ingredient)	degree of growth control, ZE (corn (Zea mays); 0.31 g/a active ingredient)	degree of growth control, ZE (corn (Zea mays); 1.25 g/a active ingredient)	degree of growth control, OR (rice (Oryza sativa); 0.31 g/a active ingredient)	degree of growth control, OR (rice (Oryza sativa); 1.25 g/a active ingredient)	degree of growth control, EC ([6]; 0.31 g/a active ingredient)	degree of growth control, EC ([6]; 1.25 g/a active ingredient)
CCC(C)N(c1cccc(S(=O)(=O)NC(=O)Nc2nc(C)nc(OC)n2)n1)S(=O)(=O)CC(C)C (racemic) [compound 80]	6	6	5	5	2	2	3	3										
CCN(c1cccc(S(=O)(=O)NC(=O)Nc2nc(C)nc(OC)n2)n1)S(=O)(=O)C(C)C [Compound No. 1, 6-[(N-ethyl-N-isopropylsulfonyl)amino]-N-[[(4-methoxy-6-methyltriazin-2-yl)amino]carbonyl]-2-pyridinesulfonamide]					8	8			10	10	8	8						
CCN(c1cccc(S(=O)(=O)NC(=O)Nc2nc(OC)nc(OC)n2)n1)S(=O)(=O)C(Cl)Cl [Compound No. 57, 6-[(N-dichloromethylsulfonyl-N-ethyl)amino]-N-[[(4,6-dimethoxytriazine-2-yl)amino]carbonyl]-2-pyridinesulfonamide]	10	10	10	10	9	9					6	6						
CCN(c1cccc(S(=O)(=O)NC(=O)Nc2nc(C)nc(OC)n2)n1)S(=O)(=O)C(Cl)Cl [compound 56]	10	10			10	10					10	10	10	10	9	9	10	10
CCN(c1cccc(S(=O)(=O)NC(=O)Nc2nc(C)nc(OC)n2)n1)S(=O)(=O)C(Br)(Br)Br [compound 90]	10	10			6	6	6	6									10	10
CCN(c1cccc(S(=O)(=O)NC(=O)Nc2nc(C)nc(OC)n2)n1)S(=O)(=O)C(Cl)(Cl)Cl [compound 91]	10	10	9	9							9	9			9	9		
